# Laboratory results: patent US12275729B2 (Merck Sharp & Dohme LLC, priority 2017, dated 2025)
# How the values were obtained:
# [1] = target: T1, IDO1 (Homo sapiens, UniProt P14902); test: IDO1 Human Whole Blood Assay; type: cell-based; parameters: Human whole blood was drawn in sodium heparin coated tubes from healthy internal donors; from tissue; host or cells: human whole blood from healthy donors, stimulated with LPS and IFNγ; settings: LPS and IFNγ stimulated
# [2] = target: T1, IDO1; test: IDO1 Cellular Assay in HeLa Cells Stimulated with IFNγ; type: cell-based
# [3] = value in running text, read-out: Hela IC50
# T1 sequence (P14902 whole entry): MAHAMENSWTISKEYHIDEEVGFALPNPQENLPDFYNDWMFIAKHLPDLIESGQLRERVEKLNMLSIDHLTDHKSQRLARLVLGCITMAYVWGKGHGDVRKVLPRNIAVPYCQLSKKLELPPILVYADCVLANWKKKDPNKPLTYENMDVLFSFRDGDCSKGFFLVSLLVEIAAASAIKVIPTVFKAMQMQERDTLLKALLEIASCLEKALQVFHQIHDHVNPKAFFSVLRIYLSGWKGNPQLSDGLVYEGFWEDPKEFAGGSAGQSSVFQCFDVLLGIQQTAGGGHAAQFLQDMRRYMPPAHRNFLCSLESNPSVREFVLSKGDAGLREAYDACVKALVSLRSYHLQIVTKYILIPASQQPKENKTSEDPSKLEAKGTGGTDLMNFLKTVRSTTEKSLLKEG
SMILES,IC50 [1],IC50 ([2]; read-out: Hela IC50),"IC50 [2, 3]","IC50 ([2]; value in running text, read-out: Hela Cell IC50)"
"O=C(OC1CC1)N1CCCc2nc(C3(C(=O)Nc4ccc(Cl)nc4)CC4(CC4)C3)ccc21 [Example 418, 2-(5-((6-chloropyridin-3-yl)carbamoyl)spiro[2.3]hexan-5-yl)-5-(cyclopropoxycarbonyl)-5,6,7,8-tetrahydro-1,5-naphthyridin-1-ium 2,2,2-trifluoroacetate]",239 nM,1.35 nM,,
"Cc1nccc(N2CCCc3nc(C4(C(=O)Nc5ccc(F)cc5)CC(F)C4)ccc32)n1 (stereo not shown) [Example 419, 2-(3-fluoro-1-((4-fluorophenyl)carbamoyl)cyclobutyl)-5-(2-methylpyrimidin-4-yl)-5,6,7,8-tetrahydro-1,5-naphthyridin-1-ium 2,2,2-trifluoroacetate]",69 nM,1.09 nM,1 nM,
"Cc1nccc(N2CCCc3nc(C4(C(=O)Nc5ccc(F)cc5)CC(F)(F)C4)ccc32)n1 [Example 420, 3,3-difluoro-N-(4-fluorophenyl)-1-(5-(2-methylpyrimidin-4-yl)-5,6,7,8-tetrahydro-1,5-naphthyridin-2-yl)cyclobutanecarboxamide]",12 nM,1.09 nM,1 nM,
"Cc1nccc(N2CCCc3nc(C4(C(=O)Nc5ccc(F)cc5)CC(OCc5ccccc5)C4)ccc32)n1 (stereo not shown) [Example 423, 2-(3-(benzyloxy)-1-((4-fluorophenyl)carbamoyl)cyclobutyl)-5-(2-methylpyrimidin-4-yl)-5,6,7,8-tetrahydro-1,5-naphthyridin-1-ium 2,2,2-trifluoroacetate]",26 nM,6.84 nM,6.8 nM,
"O=C(N[C@H](c1ccc2c(n1)CCCN2C(=O)C1CC1)C(F)(F)F)c1ccc(F)cc1 [Example 424, (R)—N-(1-(5-(cyclopropanecarbonyl)-5,6,7,8-tetrahydro-1,5-naphthyridin-2-yl)-2,2,2-trifluoroethyl)-4-fluorobenzamide]",143 nM,44.8 nM,,
"O=C(N[C@@H](c1ccc2c(n1)CCCN2C(=O)C1CC1)C(F)(F)F)c1ccc(F)cc1 [Example 425, (S)—N-(1-(5-(cyclopropanecarbonyl)-5,6,7,8-tetrahydro-1,5-naphthyridin-2-yl)-2,2,2-trifluoroethyl)-4-fluorobenzamide]",29 nM,235 nM,,
"Cc1nccc(N2CCCc3nc(C4(C(=O)Nc5ccc(F)cc5)CC(O)C4)ccc32)n1 (stereo not shown) [Example 426, 2-(1-((4-fluorophenyl)carbamoyl)-3-hydroxycyclobutyl)-5-(2-methylpyrimidin-4-yl)-5,6,7,8-tetrahydro-1,5-naphthyridin-1-ium 2,2,2-trifluoroacetate]",1000 nM,71 nM,,
"Cc1nccc(N2CCCCc3nc(C4(NC(=O)c5ccc(F)cc5)CC4)ccc32)n1 [Example 432, 4-fluoro-N-(1-(5-(2-methylpyrimidin-4-yl)-6,7,8,9-tetrahydro-5H-pyrido[3,2-b]azepin-2-yl)cyclopropyl)benzamide]",4 nM,,,3.3 nM
